For 80 compounds, RP-LC retention time results are on record in the METLIN SMRT retention time set (Domingo-Almenara et al. 2019).

This data set is described as follows: gradient 5% acetonitrile 3 min, to 50% in 2 min, to 85% in 15 min, held 3 min, 100 µL/min. The conditions noted are these: column: Zorbax Extend-C18 2.1 x 50 mm; eluents: water / acetonitrile, 0.1% formic acid. An outline of the steps:
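Retention times come from adduct peaks that were picked computationally and then checked by hand. The standards, pure and pooled in mixtures of ~100 molecules, were run on a Zorbax Extend-C18 column (2.1 × 50 mm, 1.8 μm) at 100 μL/min with water and acetonitrile, each with 0.1% formic acid. Detection was by quadrupole time-of-flight mass spectrometry in positive and negative ionization mode, with a dead volume of 40 μL and a dwell volume of 900 μL.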
Compound `COc1ccccc1-c1nc(-c2ccc3c(c2)oc(=O)n3C(C)C)no1` came in with an RP-LC retention time of 1090 s. The compound `CCCn1nnnc1NCc1ccc2c(c1)n(C)c(=O)n2C` registered an RP-LC retention time of 638 s. For the compound `CC1CCN(C(=O)C2CCN(c3nc4cccnc4s3)CC2)CC1`, the RP-LC retention time came to 784 s.

Consider `CC(=O)N1CCc2ccc(NC(=O)c3cccc(Br)c3)cc21`, for which the RP-LC retention time was determined as 774 s. As for `CCOc1ccc(CC(=O)N2CCN(c3c(C)n(C)c(=O)n(C)c3=O)CC2)cc1OCC`, the RP-LC retention time worked out at 742 s. As for `CC(C)C(NC(=O)C1CCCN(S(=O)(=O)Cc2ccccc2)C1)C(C)C` (stereo not given), the RP-LC retention time turned out to be 962 s.

The compound `O=C(NCc1nnnn1C1CCCCC1)OCc1ccccc1` yielded an RP-LC retention time of 757 s. `O=C1Nc2ccccc2SC1C(=O)N1CCC(C(=O)N2CCN(C3CCCCC3)CC2)CC1` (stereo not given): the RP-LC retention time is 590 s.

Take `COc1ccc(-c2noc(Cc3nc(-c4ccc(Br)cc4)cs3)n2)cc1`: the RP-LC retention time is 1280 s.

The compound `CCOc1ccc(NC(=O)c2c(O)c3cccnc3n(-c3cccc(F)c3)c2=O)cc1` showed an RP-LC retention time of 1280 s. The same measure for `Cc1cccc(-n2c(=O)c3c(cc(C)n3C)n(CC(=O)N(C)c3ccccc3)c2=O)c1`: 864 s; for `O=C(Cn1c(=O)c(CCC(=O)NC2CCCC2)nc2ccccc21)Nc1ccc(F)c(Cl)c1`: 672 s; for `Cc1ccc(S(=O)(=O)N2C[C@@H]3C[C@H](NC(=O)c4ccccc4)[C@H]2C3)cc1Cl`: 969 s.

`O=C(CN1C(=O)CSc2cccn2-c2ccccc21)N1CCN(c2ccccn2)CC1` had an RP-LC retention time of 607 s. Take `CC(=O)N1C[C@@H]2CCCN3CCC[C@@H]([C@H]23)[C@H]1CCCC(=O)NCCCN(C)C1CCCCC1`: the RP-LC retention time was 547 s. Regarding `CCCn1c(=O)c(C)nc2cc(-c3noc(C4CC(=O)N(c5ccc(C)cc5)C4)n3)ccc21` (stereo not given), the RP-LC retention time is 927 s.

`CCOC(=O)c1c(C)c(CCC(=O)NCc2ccc(C)o2)n(C)c1C`: the RP-LC retention time worked out at 842 s. The compound `Cc1ccc(CNC(=O)C2CCN(S(=O)(=O)c3ccc(-c4noc(C5CC5)n4)cc3)CC2)o1` had an RP-LC retention time of 938 s. `O=C(NC1COc2ccccc2C1)N1CCOCC1` (stereo not given) showed an RP-LC retention time of 660 s.

Consider `COc1ccc2nc(CN3CCN(S(=O)(=O)N(C)C)CC3)[nH]c2c1`, for which the RP-LC retention time stood at 556 s. As for `Cc1ccc(C)c(NC(=O)N2c3ccccc3CC2c2nc(C3CC3)no2)c1` (stereo not given), the figure is 1060 s; as for `O=S(=O)(c1cccnc1)N1CC(c2noc(C3CCCN3CC3CC3)n2)C1` (stereo not given), 592 s; as for `Cc1ccc(NC(=O)Nc2cccc(-c3ccc(N4CCOCC4)nn3)c2)cc1`, 704 s. In the case of `CCS(=O)(=O)N1CC(=O)N(c2ccccc2C)C(C)(C(=O)NCc2ccccc2)C1` (stereo not given), the RP-LC retention time was 802 s. For the compound `CCn1cnc2cc(-c3noc(CNC(=O)c4ccco4)n3)ccc21`, the RP-LC retention time is 588 s. In turn, `COc1ccc(NC(=O)c2cn3c(n2)CSCC3)cc1Cl` gave an RP-LC retention time of 737 s.

The compound `CCOC(=O)C1CCN(Cc2nc3nc(C)cc(N4CCC(C)CC4)n3n2)CC1` gave an RP-LC retention time of 642 s. Compound `Cc1ccc(CNC(=O)COc2cc(C)nc(N3CCN(c4ccccc4)CC3)n2)cc1` returned an RP-LC retention time of 922 s. Turning to `Clc1cc(I)cc(Cl)c1NC1=NCCN1`, the RP-LC retention time came to 655 s.

In turn, `O=C(Cn1nc2ccc(C(=O)NCc3ccccc3)cn2c1=O)NC1CCCC1` returned an RP-LC retention time of 702 s. With `Cc1ccc(NC(=O)C2CCN(C(=O)C3Sc4ccccc4NC3=O)CC2)cc1C` (stereo not given), the RP-LC retention time amounted to 818 s. As for `CCCn1cc(-c2ccncc2)cc1C(=O)NC1CCCCC1`, the RP-LC retention time was 685 s.

In turn, `O=C(NC1CCCCC1)c1ccc2ncnc(N3CCCCC3)c2c1` gave an RP-LC retention time of 658 s. On to `O=C(NCc1ccc2c(c1)OCO2)c1cn2c(n1)COCC2`, for which the RP-LC retention time stood at 616 s. Consider `Cc1ccccc1-c1nc2cnccn2c1NCCC(=O)NC(C)c1cccs1` (stereo not given), for which the RP-LC retention time was determined as 659 s. Take `COc1ccc(S(=O)(=O)C(CNC(=O)c2ccc3c(c2)OCO3)c2cccs2)cc1` (stereo not given): the RP-LC retention time turned out to be 787 s. Turning to `Fc1ccc(N2CCN(c3nnc(SCc4cccnc4)s3)CC2)cc1`, the RP-LC retention time was found to be 633 s.

In turn, `CCn1cc(S(=O)(=O)N2CCc3ccccc3C2)c2cccnc21` had an RP-LC retention time of 950 s.

For `Cc1oc(C(C)C)nc1C(=O)NCc1cccc(C(F)(F)F)c1`, the RP-LC retention time was determined as 1080 s. `COc1ccc(S(=O)(=O)N2CCN(CCO)CC2)c2ccccc12` showed an RP-LC retention time of 573 s. In the case of `CCNc1cc(C)nc(N2CCN(C(=O)CC(C)C)CC2)n1`, the RP-LC retention time came to 613 s. The same measure for `COCc1nc(CCNC(=O)NC2CCCCC2)no1`: 691 s; for `COCCn1c(CC2CCN(C(=O)Nc3cccc(Cl)c3C)C2)nc2cccnc21` (stereo not given): 631 s. Regarding `O=C(Nc1ccc(-c2nnc3n2CCCC3)cc1)c1cc(C2CC2)[nH]n1`, the RP-LC retention time worked out at 625 s. As for `O=C(CC1=C2CCCCC2NC1=O)NCCc1c[nH]c2ccccc12` (stereo not given), the figure is 673 s; as for `CCn1c(C(=O)NCc2ccccc2OC)cc2sc(Cl)cc21`, 1130 s; as for `N=c1nc(N2CCCCC2)cc(N)n1O`, 676 s. `COc1ccc(NC(=O)Cn2nc3cc(-c4ccccc4)nc(C)n3c2=O)c(OC)c1` gave an RP-LC retention time of 918 s. `CC(Cc1ccco1)NC(=O)c1cc(S(=O)(=O)N2CCCCCC2)ccc1Cl` (stereo not given) displayed an RP-LC retention time of 1010 s. The same measure for `CCS(=O)(=O)N1CC(=O)N(c2ccc(C)cc2)C(C)(C(=O)NC2CCCCCCC2)C1` (stereo not given): 979 s; for `COc1cccc(-c2nc(C3CC(=O)N(c4ccc(F)c(Cl)c4)C3)no2)c1` (stereo not given): 1100 s; for `CCOC(=O)c1nc(SC)n(C)c1C(=O)OCC`: 834 s.

`CC1CCCN(C(=O)C(=O)NCc2n[nH]c(=O)c3ccccc23)C1` (stereo not given) came in with an RP-LC retention time of 644 s. For `Cc1ccc(-c2cc(C(=O)NCCCN3CCN(C)CC3)c(C)[nH]2)cc1C`, the RP-LC retention time was determined as 610 s. Consider `COc1ccc(-c2csc(Nc3ccc(Br)cn3)n2)cc1OC`, for which the RP-LC retention time was 1100 s. As for `Cn1c(C(=O)N2CCN(c3ccccc3)CC2)cc2c(=O)oc3ccccc3c21`, the figure is 905 s; as for `CC(C)c1ccc(CNC(=O)Cc2nnc(-c3ccccn3)o2)cc1`, 578 s.

As to `Cc1ccc2[nH]cc(CCNC(=O)c3sc4ncccc4c3-n3cccc3)c2c1`, the RP-LC retention time turned out to be 1070 s.

As for `COc1ccccc1-c1nc2cnccn2c1NCCC(=O)Nc1ccc2c(c1)OCCO2`, the RP-LC retention time was determined as 672 s. `Cc1cccc(OCc2nc(-c3ccc(-c4csc(C5CC5)n4)cc3)no2)c1` displayed an RP-LC retention time of 784 s. For `COc1ccc(S(=O)(=O)Nc2cc3sc(=O)oc3c3ccccc23)cc1`, the RP-LC retention time is 894 s. With `Cc1ccc(S(=O)(=O)c2nnn3c2nc(N2CCN(c4ccccn4)CC2)c2ccccc23)cc1`, the RP-LC retention time came to 711 s. As to `O=C(CCC1CCN(c2cc(NC3CC3)ncn2)CC1)NCc1ccc(F)cc1F`, the RP-LC retention time came to 684 s.

Compound `Cc1cc(NS(=O)(=O)c2cc(-c3[nH]ncc3C(=O)N3CCOCC3)oc2C)ccc1F` had an RP-LC retention time of 691 s. The same measure for `CCN1CCN(CCCNc2ccc(-c3nc(-c4ccc(C)cc4)no3)cn2)CC1`: 646 s. The same measure for `Cc1sc(-c2cc(C(F)(F)F)[nH]n2)cc1S(=O)(=O)N1CCN(c2ccc(F)cc2)CC1`: 1110 s; for `COc1cccc(Cn2c(C)c(CNCc3cccnc3)c(C(=O)O)c2C)c1`: 625 s; for `Cc1nc(Nc2ccc(F)cn2)sc1C(=O)N1CCc2ccccc2C1`: 872 s. On to `O=C(CCS(=O)(=O)c1ccccc1)Nc1cc(-c2ccccc2)nn1CCO`, for which the RP-LC retention time was 695 s.

The compound `Cc1cccc2sc(NC(=O)Cc3csc(Nc4ccc(Cl)cn4)n3)nc12` came in with an RP-LC retention time of 1140 s. `CC(=O)c1cccc(NC(=O)Cn2cccc2-c2nc(-c3ccccc3)no2)c1` displayed an RP-LC retention time of 988 s. In the case of `Cc1ccc(-n2nc(SC(C)C(=O)NC3CC3)ccc2=O)cc1Cl` (stereo not given), the RP-LC retention time is 750 s. Compound `Cc1ccccc1CC(=O)Nc1nnc(SCc2nnc(-c3ccccc3)o2)s1` gave an RP-LC retention time of 908 s.

`CN(CCc1noc(-c2ccccc2Cl)n1)C(=O)COc1ccccc1` returned an RP-LC retention time of 900 s. Consider `Cc1noc(C)c1-c1ccc(S(=O)(=O)NC(C)C)cc1`, for which the RP-LC retention time is 812 s.

Compound `COc1ccc(S(=O)(=O)N2CCCCC2CC(=O)Nc2ncccn2)cc1` (stereo not given) had an RP-LC retention time of 647 s. `CC(=O)N1CCc2sc(C(=O)NCc3ccccc3Br)cc2C1` gave an RP-LC retention time of 770 s.

Regarding `CCOC(=O)c1c(C)[nH]c(C(=O)N2CCC(CC(=O)NCc3ccccc3C)CC2)c1C`, the RP-LC retention time was 802 s.

The compound `COc1ccccc1-c1noc(C2CCCN2C(=O)Nc2ccc(F)c(Cl)c2)n1` (stereo not given) registered an RP-LC retention time of 942 s. As for `Cc1sc2ncnc(SCC(=O)Nc3ccc(S(N)(=O)=O)cc3)c2c1C`, the figure is 730 s.
